According to article PMC5638327, “Comparison of bioavailability and antiplatelet action of ticagrelor in patients with ST-elevation myocardial infarction and non-ST-elevation myocardial infarction: A prospective, observational, single-centre study” (PLoS ONE, 2017):

Experiments:
[1] = system: platelet reactivity; test: Platelet reactivity by the VASP assay after ticagrelor loading dose; type: in vivo, human (patients with myocardial infarction); conditions: median [interquartile range]; for time to achieve platelet inhibition below the cut-off value for HPR (VASP): HPR = platelet reactivity index >50%
Experimental: Consecutive STEMI and NSTEMI patients admitted to the study site (Cardiology Department, Dr. A. Jurasz University Hospital, Bydgoszcz, Poland) were screened for eligibility. After admission to the study centre, confirmation of the initial diagnosis of STEMI or NSTEMI, and provision of a written informed consent to participate in the trial, all study participants received an oral 300 mg LD of plain aspirin (Polpharma SA, Starogard Gdański, Poland) and 180 mg LD ticagrelor in integral tablets with 250 mL tap water. Subsequently, within 15 minutes of ticagrelor LD, all patients underwent coronary angiography followed by PCI as required. During the periprocedural period, all study participants received unfractionated heparin in body weight adjusted dose according to the European Society of Cardiology (ESC) recommendations. Plasma concentrations of ticagrelor and its active metabolite, as well as their antiplatelet effect, were evaluated according to the sampling schedule employed at our centre in previous PK/PD study (pre-treatment, 0.5 h, 1 h, 2 h, 3 h, 4 h, 6 h and 12 h post ticagrelor LD).
Blood samples for PK/PD evaluation were obtained from an 18-gauge cannula inserted into one of the forearm veins. The first 5 mL blood was discarded to avoid spontaneous platelet activation. In each patient specimens were collected at the eight pre-defined time. Detailed description of blood sample processing has been published in the study protocol (S1 File).
Platelet reactivity was assessed using VASP and Multiplate. The VASP assay (Biocytex, Inc., Marseille, France) was used in all study participants, while Multiplate (Roche Diagnostics International Ltd., Rotkreuz, Switzerland) was used in all except in those treated with glycoprotein (GP) IIb/IIIa receptor inhibitors. Pharmacodynamic evaluation was performed according to the manufacturers' instructions. HPR was defined as platelet reactivity index >50% for the VASP assay and AUC >46 units (U) for Multiplate. […]
Table 1 Inclusion and exclusion criteria of the PINPOINT study
Inclusion criteria Exclusion criteria
▸ Provision of informed consent prior to any ▸ Treatment with ticlopidine, clopidogrel, prasugrel or ticagrelor within study-specific procedure 14 days before the study enrolment
▸ Diagnosis of STEMI or NSTEMI ▸ Hypersensitivity to ticagrelor
▸ Men or non-pregnant women ▸ Current treatment with oral anticoagulant or chronic therapy with low-molecular-weight heparin
▸ Provision of informed consent for angiography ▸ Active bleeding […]
▸ History of intracranial haemorrhage
▸ Fibrinolytic treatment during the index event
▸ Recent gastrointestinal bleeding (within 30 days)
▸ History of coagulation disorders
▸ History of moderate or severe hepatic impairment
▸ History of major surgery or severe trauma (within 3 months)
▸ Second or third degree atrioventricular block during screening for […]
▸ Patient requiring dialysis
▸ Manifest infection or inflammatory state
▸ Killip class III or IV during screening for eligibility
▸ Current therapy with strong CYP3A inhibitors or strong CYP3A […]
NSTEMI, non-ST-elevation myocardial infarction; PCI, percutaneous coronary intervention; STEMI, ST-elevation myocardial infarction. […]
Assessment of pharmacodynamics ticagrelor, β-blockers, statins and ACE inhibitors or angio-Platelet VASP assay (Biocytex, Marseille, France) will be tensin II receptor blockers, if not contraindicated. applied to all study participants at all predeﬁned time Morphine will be used at the discretion of the ambulance points. MEA (Roche Diagnostics International, Rotkreuz, staff and the attending physician. The type of implanted Switzerland) will be used at all predeﬁned time points stent and choice of the access site for coronary invasive ( ﬁgure 1) for all study participants with the exception of procedure (radial or femoral ) will be at the discretion of those treated with glycoprotein IIb/IIIa (GP IIb/IIIa) the operator. During the periprocedural period, all study […]

[2] = Pharmacokinetic assessment: plasma concentrations by liquid chromatography tandem mass spectrometry after ticagrelor loading dose; type: in vivo, human (patients with myocardial infarction); conditions: both sexes, human, oral, 180 mg, internal pilot study, first 15 patients with NSTEMI, mean and SD, read-out: AUC(0–6)
[3] = system: platelet inhibition; parameters: method as in earlier work; conditions: 2 hours after ticagrelor LD; ref 18 20 25 (of the protocol); cited from earlier work

AUC(0-t) [2]: 6410 ± 4080 ng·h/mL
SMILES: CCCSc1nc(N[C@@H]2C[C@H]2c2ccc(F)c(F)c2)c2nnn([C@@H]3C[C@H](OCCO)[C@@H](O)[C@H]3O)c2n1 [ticagrelor]
Platelet reactivity (VASP) ([1]; NSTEMI, 0.5 h after 180 mg ticagrelor LD): 57.0 [30.2–89.4] %
Platelet reactivity (VASP) ([1]; NSTEMI, 1 h after 180 mg ticagrelor LD): 40.8 [23.7–69.2] %
Platelet reactivity (VASP) ([1]; NSTEMI, 3 h after 180 mg ticagrelor LD): 32.2 [14.7–38.7] %
Platelet reactivity (VASP) ([1]; NSTEMI, 4 h after 180 mg ticagrelor LD): 21.1 [17.5–43.1] %
time to achieve platelet inhibition below the cut-off value for HPR (VASP) ([1]; NSTEMI): 1.0 [0.5–2.0] h
Platelet reactivity (VASP) ([1]; STEMI, 0.5 h after 180 mg ticagrelor LD): 83.1 [74.5–87.8] %
Platelet reactivity (VASP) ([1]; STEMI, 1 h after 180 mg ticagrelor LD): 80.7 [40.4–90.5] %
Platelet reactivity (VASP) ([1]; STEMI, 3 h after 180 mg ticagrelor LD): 45.0 [26.4–80.9] %
Platelet reactivity (VASP) ([1]; STEMI, 4 h after 180 mg ticagrelor LD): 36.5 [22.2–69.7] %
time to achieve platelet inhibition below the cut-off value for HPR (VASP) ([1]; STEMI): 2.5 [1.0–6.0] h
patients with STEMI with inadequate platelet inhibition [3]: ≤ 60%
